According to patent US6225260A, “Quaternary ammonium salts of a sulfonylurea” (Lonza Inc., priority 1999, dated 2001):
≈ marks a conversion by molar mass, not a printed value.

Experiments:
[1] = Solubility in epoxidized soybean oil, methyl caprylate/caprate, and cottonseed oil
[2] = Aging / storage stability: relative decomposition of the sulfonylurea by HPLC; format: physicochemical; conditions: 10080 min
Method: Into 7.8 g of epoxidized soybean oil (ESBO) was added with stirring: 1.18 g methyl 3-[[[[(4-methoxy-6-methyl-1,3,5-triazin-2-yl)amino]carbonyl]amino]sulfonyl]-2-thiophenecarboxylate tech (98.1%), 1.31 g of anhydrous diisobutylphenoxy ethoxyethyl dimethylbenzyl ammonium chloride in H2 O (Hyamine 1622™), 0.11 g Ca(OH)2, and 0.03 g calcium acetate.
In a vial was vortexed the following: 0.214 g methyl 2-[[[[[(4,6-dimethoxy-2-pyrimidinyl)amino]carbonyl]amino]sulfonyl]methyl]benzoate (98.3%),0.192 g of a 25% aqueous solution of tetramethyl ammonium hydroxide, and 4.32 g of water to produce the sulfonylurea quaternary salt.

Aspergillus niger = conditions: 6 days, Czapek solution agar
Excerpt: A. niger ATCC #16404 was contacted with each sulfonylurea salt for 6 days in a Czapek solution agar.

[3] = test system: Setaria faberi (Giant Foxtail); assay: Herbicidal efficacy against giant foxtail (green fresh weight, percent control); format: in vivo
Method: (§1) Aqueous solutions of the benzethonium salts of each sulfonylurea were prepared with and without 0.25% by weight of the nonionic surfactant polyoxyethylene (20) monolaurate (Tween 20®, trademark of ICI), based upon 100% total weight of aqueous solution. The aqueous solutions were sprayed onto giant foxtail (Setaria faberi) and large crabgrass (Digitaria sanguinalis) with a spray volume of 187 L/ha (liters/hectare). The active amount of each salt applied in grams/hectare (g/ha) is shown in Table 2 with respect to giant foxtail and Table 3 with respect to large crabgrass. The plants were evaluated two weeks after treatment with the aqueous solution by obtaining their green fresh weights and comparing these weights to an untreated control treatment to compute percent control values. Six replications were made of each treatment. All data were analyzed using a Fisher's Least Significant Difference (L.S.D.) Test at the 0.05 level.
(§2) Aqueous solutions were prepared with 75% concentrated, water-dispersible granules (75 DF) of nicosulfuron and rimsulfuron available as Accent® herbicide and Titus® herbicide (trademarks of DuPont) with or without 0.25% by weight of Tween 20®. These aqueous solutions were tested against giant foxtail (Setaria faberi) and large crabgrass (Digitaria sanguinalis) as described in Example 4.

[4] = test system: Digitaria sanguinalis (Large Crabgrass); assay: Herbicidal efficacy against large crabgrass (green fresh weight, percent control); format: in vivo
Method: as §1, §2

physchem = conditions: water, pH 7, water
[5] = Hydrolytic stability in aqueous solution by HPLC (storage at room temperature for 36 days); format: physicochemical; conditions: 100 ppm in deionized water, after 36 days, read-out: percentage of material present after storage
Method: Aqueous solutions containing 100 ppm of nicosulfuron or its benzethonium salt were prepared with deionized water and stored at room temperature for 36 days. The solutions were analyzed by HPLC with an Inersil ODS2 column and an ultraviolet detector at a wavelength of 254 nm. The mobile phase through the column consisted of acetonitrile and water at a 1:1 volume ratio. The flow rate through the column was 1 ml/min.

[6] = Aging in deionized water: relative degradation of the sulfonylurea by HPLC; format: physicochemical; conditions: saturated in deionized water (500 ppm), 25° C. for 30 days
Method: Deionized water (5 g) was saturated with 2-[[[[(4,6-dimethoxy-2-pyrimidinyl)amino]carbonyl]amino]sulfonyl]-N,N-dimethyl-3-pyridinecarboxamide tech (500 ppm) and aged at 25° C. for 30 days.

Structure (SMILES): CCCCCCCCCCCC[N+](CCCCCCCCCCCC)(CCCCCCCCCCCC)CCCCCCCCCCCC.COc1cc(OC)nc(NC(=O)[N-]S(=O)(=O)c2c(-c3nnn(C)n3)cnn2C)n1 [B]
- solubility in organic solvents [1]: more than 50%
- relative degradation ([2]; 50% solutions in epoxidized soybean oil, methyl caprylate/caprate, and cottonseed oil, 1 week at 54° C.): 20-45%

Structure (SMILES): CC(C)(C)CC(C)(C)c1ccc(OCCOCC[N+](C)(C)Cc2ccccc2)cc1.COC(=O)c1ccccc1S(=O)(=O)[N-]C(=O)Nc1nc(C)nc(OC)n1 [Benzethonium salt of metsulfuron-methyl]
- Minimum Effective Concentration (Aspergillus niger): 300-1000 ppm

Structure (SMILES): CC(C)(C)CC(C)(C)c1ccc(OCCOCC[N+](C)(C)Cc2ccccc2)cc1.COc1cc(OC)nc(NC(=O)[N-]S(=O)(=O)c2ncccc2C(=O)N(C)C)n1 [Benzethonium salt of nicosulfuron]
- Minimum Effective Concentration (Aspergillus niger): 100-300 ppm
- % Control ([3]; 6 g/ha, 0.25% Tween 20, two weeks after treatment): 97%
- % Control ([3]; 6 g/ha, no nonionic surfactant, two weeks after treatment): 39%
- % Control ([4]; 20 g/ha, 0.25% Tween 20, two weeks after treatment): 94%
- % Control ([4]; 20 g/ha, no nonionic surfactant, two weeks after treatment): 34%

Structure (SMILES): CC(C)(C)CC(C)(C)c1ccc(OCCOCC[N+](C)(C)Cc2ccccc2)cc1.CCS(=O)(=O)c1cccnc1S(=O)(=O)[N-]C(=O)Nc1nc(OC)cc(OC)n1 [Benzethonium salt of rimsulfuron]
- Minimum Effective Concentration (Aspergillus niger): 100-300 ppm
- % Control ([3]; 3 g/ha, 0.25% Tween 20, two weeks after treatment): 95%
- % Control ([3]; 3 g/ha, no nonionic surfactant, two weeks after treatment): 25%
- % Control ([4]; 10 g/ha, 0.25% Tween 20, two weeks after treatment): 94%
- % Control ([4]; 10 g/ha, no nonionic surfactant, two weeks after treatment): 58%

Structure (SMILES): COC(=O)c1ccccc1CS(=O)(=O)[N-]C(=O)Nc1nc(OC)cc(OC)n1.C[N+](C)(C)C [C]
- degradation of the sulfonylurea ([2]; aqueous solution, one week at 54° C.): 52%

Structure (SMILES): COc1cc(OC)nc(NC(=O)NS(=O)(=O)c2ncccc2C(=O)N(C)C)n1 [nicosulfuron, 2-[[[[(4,6-dimethoxy-2-pyrimidinyl)amino]carbonyl]amino]suflonyl]-N,N-dimethyl-3-pyridinecarboxamide]
- solubility (physchem): 12 mg/mL (≈ 29.2 mM)
- remaining at 864 h [5]: 7%
- degraded at 720 h [6]: 90%
